In the experiment the target is T1, sGC α1/β1 heterodimer (Homo sapiens, UniProt Q02108+Q02153).
T1 construct: expressed in transfected cells
T1 sequence (Q02108 1-690): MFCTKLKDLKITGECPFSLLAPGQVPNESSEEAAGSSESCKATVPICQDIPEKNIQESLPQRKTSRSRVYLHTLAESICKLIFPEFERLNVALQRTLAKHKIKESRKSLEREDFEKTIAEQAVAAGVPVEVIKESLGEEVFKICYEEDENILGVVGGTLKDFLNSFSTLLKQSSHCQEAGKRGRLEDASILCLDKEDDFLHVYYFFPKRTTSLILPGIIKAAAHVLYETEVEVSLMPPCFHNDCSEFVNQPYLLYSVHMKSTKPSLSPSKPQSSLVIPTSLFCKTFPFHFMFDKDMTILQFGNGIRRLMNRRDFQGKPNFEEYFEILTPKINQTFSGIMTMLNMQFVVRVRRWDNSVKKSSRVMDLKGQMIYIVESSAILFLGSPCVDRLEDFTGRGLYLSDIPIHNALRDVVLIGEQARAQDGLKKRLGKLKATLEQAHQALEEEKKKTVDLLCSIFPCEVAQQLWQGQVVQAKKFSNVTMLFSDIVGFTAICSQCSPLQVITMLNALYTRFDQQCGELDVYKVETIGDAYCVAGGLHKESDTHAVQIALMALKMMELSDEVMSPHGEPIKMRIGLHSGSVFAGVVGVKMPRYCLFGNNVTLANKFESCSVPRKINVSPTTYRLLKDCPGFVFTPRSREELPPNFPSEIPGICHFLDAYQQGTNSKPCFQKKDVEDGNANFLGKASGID
T1 sequence (Q02153 1-619): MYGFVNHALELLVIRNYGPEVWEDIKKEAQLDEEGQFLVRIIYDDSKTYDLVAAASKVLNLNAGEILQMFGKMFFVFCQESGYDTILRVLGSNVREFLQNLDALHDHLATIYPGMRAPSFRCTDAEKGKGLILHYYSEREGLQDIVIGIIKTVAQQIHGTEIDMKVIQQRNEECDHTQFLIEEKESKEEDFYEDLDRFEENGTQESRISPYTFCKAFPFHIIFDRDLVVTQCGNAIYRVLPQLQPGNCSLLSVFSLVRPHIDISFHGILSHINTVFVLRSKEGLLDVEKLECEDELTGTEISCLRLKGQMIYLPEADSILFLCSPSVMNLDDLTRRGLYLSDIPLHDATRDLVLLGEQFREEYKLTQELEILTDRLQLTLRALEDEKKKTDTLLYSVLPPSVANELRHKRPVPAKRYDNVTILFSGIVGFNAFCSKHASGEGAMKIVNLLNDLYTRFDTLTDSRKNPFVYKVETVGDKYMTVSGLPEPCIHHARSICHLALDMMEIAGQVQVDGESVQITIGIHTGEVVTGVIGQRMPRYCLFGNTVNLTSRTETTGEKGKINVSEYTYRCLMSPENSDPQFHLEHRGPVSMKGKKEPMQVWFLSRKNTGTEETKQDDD
Kind of experiment: Cell-Based sGC Functional Assay (CASA Assay). The note with it: CHO-K1/sGC cells; for pEC50: intracellular cGMP by HTRF, 1 hr at 37° C., IP from 4P fit, presence or absence of 1 μM DETA-NO not given; for Emax: cGMP as percentage of maximum cGMP production of Compound A (=100% activation), read-out: % ACT (percent activation). An excerpt:
Biological Assays: Cell-Based sGC Functional Assay (CASA Assay)
sGC is a heme-containing enzyme that converts GTP to secondary messenger cGMP. Increases in cGMP levels affect several physiological processes including vasorelaxation through multiple downstream pathways. […] Heme-dependent activators (HDAs) preferentially activate sGC containing a ferrous heme group. To determine the effect of sGC activators on enzyme activity, the CASA assay was developed to monitor the generation of cGMP in a cell line that stably expresses the heterodimeric sGC protein.
A CHO-K1 cell line stably expressing the sGC α1/β1 heterodimer was generated using a standard transfection protocol. CHO-K1 cells were transfected with plasmids pIREShyghsGCα1 and pIRESneo-hsGCβ1 simultaneously using FUGENE reagent. Clones that stably express both subunits were selected with hygromycin and neomycin for ˜2 weeks. Clone #7 was chosen for the assay and was designated CHO-K1/sGC. CHO-K1/sGC cells were maintained in F-K12 medium containing 10% heat-inactivated Fetal Bovine Serum (FBS), 100 μg/mL penicillin/streptomycin, 0.5 mg/mL hygromycin and 0.25 mg/mL G418. The cells were then cryopreserved in LN2. On the day of the assay, cells were thawed and resuspended in EBSS Assay Buffer (EAB, Sigma, E3024) supplemented with 5 mM MgCl2, 10 mM HEPES (4-(2-hydroxyethyl)piperazine-1-ethanesulfonic acid) and 0.05% BSA (bovine serum albumin) and cell density was then adjusted to 4×10^5/mL with EAB. IBMX (3-isobutyl-1-methylxanthin, 0.5 mM) was added to inhibit degradation of cGMP. Compounds were diluted from DMSO stock solutions and added to the assay at a final DMSO concentration of 2.5%. Cells were incubated with compounds in the presence and absence of 1 μM of Diethylenetriamine/nitric oxide adduct (DETA-NO; Sigma, 17018) for 1 hr at 37° C. At the end of the incubation period, the reaction was terminated and the cells were lysed with the detection reagents from Cisbio Kits. The level of intracellular cGMP was determined using an HTRF-based assay kit (CisBio, 62GM2PEC), which detects the displacement of a fluorescence labeled cGMP from its specific antibody. The cGMP produced by test compounds was directly compared to the maximum cGMP production (this value was set to equal 100% activation) of the published sGC-HDA Compound A:
[drawing 123] (Example 1 in WO 2010/065275, published Jun. 10, 2010). The test compounds' activity was then expressed as a percentage of Compound A, the standard in every experiment. This percent activation was calculated either in the presence or absence of DETA-NO which was then plotted. IP and maximum fold induction was derived using ADA analysis software for 4P fit.
Background: Time-resolved FRET reads energy transfer from a long-lived donor to a nearby acceptor.

Molecules are shown by their SMILES. pEC50: −log10 of the molar value.

As a reminder, the pEC50 is the negative decadic logarithm of the EC50, by convention in mol/L. Read a low pEC50 as a high EC50. With `Cn1ncc2c(-c3nc(N)c4c(n3)NC(=O)C4(C)c3ccccc3)nc(CCCC(F)(F)F)nc21` (single isomer, unassigned) [Example 3, 4-Amino-5-methyl-2-(1-methyl-6-(4,4,4-trifluorobutyl)-1H-pyrazolo[3,4-d]pyrimidin-4-yl)-5-phenyl-5H-pyrrolo[2,3-d]pyrimidin-6(7H)-one], the pEC50 was 6.92 and the Emax came to 132%.

On to `Cn1ncc2c(-c3nc(N)c4c(n3)NC(=O)C4(C)C(N)=O)nc(CCC(F)(F)C(F)(F)F)nc21` (single isomer, unassigned) [Example 30, 4-Amino-5-methyl-2-(1-methyl-6-(3,3,4,4,4-pentafluorobutyl)-1H-pyrazolo[3,4-d]pyrimidin-4-yl)-6-oxo-6,7-dihydro-5H-pyrrolo[2,3-d]pyrimidine-5-carboxamide], for which the negative-log EC50 (pEC50) was 6.61 and the Emax was 84%.

On to `Cn1ncc2c(-c3nc(N)c4c(n3)NC(=O)C4(C)C#N)nc(CCC(F)(F)C(F)(F)F)nc21` (single isomer, unassigned) [Example 49, 4-Amino-5-methyl-2-(1-methyl-6-(3,3,4,4,4-pentafluorobutyl)-1H-pyrazolo[3,4-d]pyrimidin-4-yl)-6-oxo-6,7-dihydro-5H-pyrrolo[2,3-d]pyrimidine-5-carbonitrile], for which the negative-log EC50 (pEC50) was 6.61 and the Emax came to 105%.

On to `Cn1ncc2c(-c3nc(N)c4c(n3)NC(=O)C4(C)NC(=O)C3CC3)nc(CCC(F)(F)C(F)(F)F)nc21` (centres unmarked) [Example 53, N-(4-Amino-5-methyl-2-(1-methyl-6-(3,3,4,4,4-pentafluorobutyl)-1H-pyrazolo[3,4-d]pyrimidin-4-yl)-6-oxo-6,7-dihydro-5H-pyrrolo[2,3-d]pyrimidin-5-yl)cyclopropanecarboxamide], for which the pEC50 is 6.06 and the Emax was determined as 104%.

With `COc1ccc(C2(C)C(=O)Nc3nc(-c4nc(CCC(F)(F)C(F)(F)F)nc5c4cnn5C)nc(N)c32)cc1F` (single isomer, unassigned) [Example 16, 4-Amino-5-(3-fluoro-4-methoxyphenyl)-5-methyl-2-(1-methyl-6-(3,3,4,4,4-pentafluorobutyl)-1H-pyrazolo[3,4-d]pyrimidin-4-yl)-5H-pyrrolo[2,3-d]pyrimidin-6(7H)-one], the negative-log EC50 (pEC50) was 7.82 and the Emax was 112%.

In the case of `Cn1nc(Cl)c2c(-c3nc(N)c4c(n3)NC(=O)C4(C)c3ccc(F)cc3)nc(CCC(F)(F)C(F)(F)F)nc21` (single isomer, unassigned) [Example 58, 4-Amino-2-(3-chloro-1-methyl-6-(3,3,4,4,4-pentafluorobutyl)-1H-pyrazolo[3,4-d]pyrimidin-4-yl)-5-(4-fluorophenyl)-5-methyl-5H-pyrrolo[2,3-d]pyrimidin-6(7H)-one], the pEC50 was 6.20 and the Emax came out at 70%.

With `[2H]C([2H])([2H])n1ncc2c(-c3nc(N)c4c(n3)NC(=O)C4(C)c3cccc(OC)c3)nc(CCC(F)(F)C(F)(F)F)nc21` (single isomer, unassigned) [Example 14, 4-Amino-5-(3-methoxyphenyl)-5-methyl-2-(6-(3,3,4,4,4-pentafluorobutyl)-1-trideuteriomethyl-1H-pyrazolo[3,4-d]pyrimidin-4-yl)-5H-pyrrolo[2,3-d]pyrimidin-6(7H)-one], the pEC50 is 7.68 and the Emax amounted to 110%.

As for `Cn1ncc2c(-c3nc(N)c4c(n3)NC(=O)C4(C)C3CCCCC3)nc(CCC(F)(F)C(F)(F)F)nc21` (single isomer, unassigned) [Example 18, 4-Amino-5-cyclohexyl-5-methyl-2-(1-methyl-6-(3,3,4,4,4-pentafluorobutyl)-1H-pyrazolo[3,4-d]pyrimidin-4-yl)-5H-pyrrolo[2,3-d]pyrimidin-6(7H)-one], the pEC50 is 6.77 and the Emax is 122%.

On to `C#CC1(C)C(=O)Nc2nc(-c3nc(CCC(F)(F)C(F)(F)F)nc4c3cnn4C)nc(N)c21` (single isomer, unassigned) [Example 21, 4-Amino-5-ethynyl-5-methyl-2-(1-methyl-6-(3,3,4,4,4-pentafluorobutyl)-1H-pyrazolo[3,4-d]pyrimidin-4-yl)-5H-pyrrolo[2,3-d]pyrimidin-6(7H)-one], for which the pEC50 is 7.04 and the Emax worked out at 106%.

Turning to `[2H]C([2H])([2H])n1ncc2c(-c3nc(N)c4c(n3)NC(=O)C4(C(=O)NC3CC3)C(C)C)nc(CCC(F)(F)C(F)(F)F)nc21` (single isomer, unassigned) [Example 35, 4-Amino-N-cyclopropyl-5-isopropyl-2-(6-(3,3,4,4,4-pentafluorobutyl)-1-trideuteriomethyl-1H-pyrazolo[3,4-d]pyrimidin-4-yl)-6-oxo-6,7-dihydro-5N-pyrrolo[2,3-d]pyrimidine-5-carboxamide], the pEC50 was 7.21 and the Emax was found to be 107%.

Take `CC1(c2ccccc2)C(=O)Nc2nc(-c3nc(CCC(F)(F)C(F)(F)F)nc4[nH]ccc34)nc(N)c21` (single isomer, unassigned) [Example 65, 4-Amino-5-methyl-2′-(3,3,4,4,4-pentafluorobutyl)-5-phenyl-5H,7′H-[2,4′-bipyrrolo[2,3-d]pyrimidin]-6(7H)-one]: the pEC50 is 6.59 and the Emax amounted to 102%.

Consider `Cn1ncc2c(-c3nc(N)c4c(n3)NC(=O)C4(C)c3ccc(F)cc3)nc(CC3CC(F)(F)C3)nc21` (single isomer, unassigned) [Example 5, 4-Amino-2-(6-((3,3-difluorocyclobutyl)methyl)-1-methyl-1H-pyrazolo[3,4-d]pyrimidin-4-yl)-5-(4-fluorophenyl)-5-methyl-5H-pyrrolo[2,3-d]pyrimidin-6(7H)-one], for which the pEC50 was 7.28 and the Emax was determined as 122%.

For the molecule `[2H]C([2H])([2H])n1ncc2c(-c3nc(N)c4c(n3)NC(=O)C4(C(=O)NCC)C3CC3)nc(CCC(F)(F)C(F)(F)F)nc21` (single isomer, unassigned) [Example 29, 4-Amino-5-cyclopropyl-N-ethyl-2-(6-(3,3,4,4,4-pentafluorobutyl)-1-trideuteriomethyl-1H-pyrazolo[3,4-d]pyrimidin-4-yl)-6-oxo-6,7-dihydro-5H-pyrrolo[2,3-d]pyrimidine-5-carboxamide], the pEC50 was 6.87 and the Emax is 131%.

Values taken from patent publication US9783552B2, “Soluble guanylate cyclase activators” (MERCK SHARP & DOHME CORP., priority 2013, dated 2017).
